Source: patent US6569633B1, “Modulation of the sulfonylurea receptor and calcium in adipocytes for treatment of obesity/diabetes” (Artecel Science, Inc., priority 1998, dated 2003)
pEC50, pKd: −log10 of the molar value.

Key:
[1] = molecular target: rat adipocytes; conditions: read-out: KD of glibenclamide binding; cited from earlier work
[2] = test system: human adipocytes; assay: Intracellular Ca2+ ([Ca2+]i) by fura-2 fluorometry in isolated human adipocytes; type: cell-based
Method: FIG. 2. Glibenclamide stimulation of [Ca^2+]i in isolated human adipocyte. [Ca^2+]i in isolated human adipocytes was determined fluorometrically as previously described (4,7). Briefly, the human adipocytes isolated as described above were incubated in DMEM medium overnight for cell recovery. Prior to [Ca^2+]i measurement, adipocytes were pre-incubated in serum-free medium for 2 hrs, rinsed with HBSS solution containing the following components in mM: NaCl 138, CaCl2 1.8, MgSO4 0.8, NaH2PO4 0.9, NaHCO3 4, glucose 20, glutamine 6, HEPES 20 and BSA 1%. Cells were then loaded with fura-2 acetoxymethyl ester (10 μM) in the same buffer for 45 min at 37° C. in the dark with continuous shaking. To remove extracellular dye, cells were rinsed with HBSS for 3 times and resuspended in this solution at a concentration of 2×10^5 cells/ml. [Ca^2+]i was measured using dual excitation (340 and 380 nm) and single emission (510 nm) fluorometry. Following the establishment of stable baseline, the response to glibenclamide (10 and 20 μM) was determined. Digitonin (25 μM) and Tris/EGTA (100 mM) were used to measure maximal and minimal fluorescence to calibrate the signals, and final [Ca^2+]i was then calculated by the equation of Grynkiewicz et al. (17). […] Glibenclamide (Glib) was added at time designated by the arrow. B. The dose-responsive effect of glibenclamide on [Ca^2+]i in human adipocytes. Glibenclamide was added at 10 and 20 µM at the indicated times. *p<0.05 vs. Control, **p<0.05 vs. 10 μM glibenclamide.
The functionality of the SUR1 receptor was determined with respect to calcium mobilization and small molecule effects. [Ca^2+]i response was measured fluorometrically in isolated human adipocytes using a standard method (2,16). Briefly, isolated human adipocytes were incubated in DMEM or any other suitable medium such as Ham's F-10, Modified Eagle's media plus 5-10% fetal calf serum overnight for cell recovery. Prior to [Ca^2+]i measurement, adipocytes were pre-incubated in serum-free medium for 2 hrs, rinsed with HBSS solution containing the following components in mM: NaCl 138, CaCl2 1.8, MgSO4 0.8, NaH2PO4 0.9, NaHCO3 4, glucose 20, glutamine 6, HEPES 20 and BSA 1%. Cells were then loaded with fura-2 acetoxymethyl ester (10 μM) in the same buffer for 30-60 min at 37° C. in dark with continuous shaking. To remove extracellular dye, cells were rinsed with HBSS for three times and resuspended in this solution at a concentration of 1-10×10^5 cells/ml. [Ca^2+]i was measured using dual excitation (340 and 380 nm) and single emission (510 nm) fluorometry. Following the establishment of stable baseline, the response to a SUR agonist such as glibenclamide (1-20 μM) can be determined. Digitonin (25 μM) and Tris/EGTA (100 mM) were used to measure maximal and minimal fluorescence to calibrate the signals, and final [Ca^2+]i was then calculated by a known method such as described in Grynkiewicz et al (17).
Correlation of lipolysis with flux of intracellular calcium ([Ca^2+]i) concentration is then performed. [Ca^2+]i is measured in primary adipocytes. For primary adipocytes, 3 ml of cells are resuspended in 6 ml of HBSS and fura-2/AM was loaded for 80 min at 37° C. Extracellular fura-2/AM is washed three times with HBSS by centrifugation. [Ca^2+]i levels are then measured fluorometrically in suspensions using dual excitation (340 and 380 nm)/single emission (510 nm) fluorometry and [Ca^2+]i is calculated by the computer in the fluorometer. As a control, after loading fura-2/AM cells are pretreated with nitrendipine (RBI, Natick, Mass.) (30 μM, final concentration) for 10 min at 37° C.

[3] = test system: human adipocytes; assay: Triglyceride accumulation in human adipocytes; type: cell-based; conditions: control 28.2±4.5
Method: Human subcutaneous abdominal adipocytes were isolated from healthy patients undergoing cosmetic liposuction using methodology we have previously described. Briefly, the tissue was washed several times with Hank's Balanced Salt Solution, minced into small fragments and digested with type I collagenase (1 mg/mL) in a shaking water bath at 37° C. for 30-40 minutes. Cells were then filtered through a sterile nylon filter (500 μm mesh) and cultured in Dulbecco's Modified Eagle's Medium (DMEM) supplemented with 1% fetal bovine serum, 1% bovine serum albumin, 100 U/mL penicillin, 100 μg/mL streptomycin and 50 μg/mL gentamicin. Cells were subsequently cultured in suspension in sterile polypropylene flasks in a humidified 37° C./5% CO2 incubator. After one day, suspended (floating) adipocytes were transferred to fresh medium and maintained as a thin layer at the top of the culture medium to ensure access to nutrients. The cells were maintained for another 24 hours in this medium and then changed to fresh medium with the addition of SUR agonists (such as glibenclamide) for up to 48 hours with the compounds to be tested. Medium was changed every 24 hours, and cell viability was verified with trypan blue exclusion at the end of representative experiments.
Stimulation of fatty acid synthase and concomitant inhibition of lipolysis results in increased lipid accumulation in human adipocytes. Adipocytes were treated as described above, harvested, and their triglyceride content was analyzed and normalized for protein content. […] Thus, these calcium-stimulated biochemical activities will contribute to the development of adipocyte hypertrophy and potentially obesity.

Q: With `COc1ccc(Cl)cc1C(=O)NCCc1ccc(S(=O)(=O)NC(=O)NC2CCCCC2)cc1` [glibenclamide] as the compound, how does the pKd [1] read?
A: 5.52 to 6.00

Q: What about the “[Ca2+]i response” value ([2]; 20 µM glibenclamide (FIG. 2A)) of the same compound?
A: increase in intracellular calcium

Q: And the “[Ca2+]i response” value ([2]; 1-20 μM, dose-dependent manner)?
A: sustained increases

Q: And the pEC50 ([2]; Adipocyte, human adipocytes, read-out: EC50 for increase in intracellular free calcium)?
A: ~6.00

Q: And the “maximum response of intracellular free calcium” value ([2]; graded doses, over a baseline of 190 nM)?
A: 388 ± 72 nM

Q: And the triglyceride accumulation ([3]; 2 μM glibenclamide (dose-responsive series))?
A: 46.1±6.3 μg/mg protein

Q: What about the triglyceride accumulation ([3]; 10 μM glibenclamide (dose-responsive series)) of the same compound?
A: 58.0±3.4 μg/mg protein
